The source of these data is US20040043959A1, “Combination therapies for treating methylthioadenosine phosphorylase deficient cells” (priority 2002, published 2004).

This experiment concerns the target T1, Human MTAP (Homo sapiens, UniProt Q13126).
T1 construct: six-histidine tag (His6) (N); made in house; host or cells: E. coli BL21 DE3
T1 sequence (Q13126 1-283): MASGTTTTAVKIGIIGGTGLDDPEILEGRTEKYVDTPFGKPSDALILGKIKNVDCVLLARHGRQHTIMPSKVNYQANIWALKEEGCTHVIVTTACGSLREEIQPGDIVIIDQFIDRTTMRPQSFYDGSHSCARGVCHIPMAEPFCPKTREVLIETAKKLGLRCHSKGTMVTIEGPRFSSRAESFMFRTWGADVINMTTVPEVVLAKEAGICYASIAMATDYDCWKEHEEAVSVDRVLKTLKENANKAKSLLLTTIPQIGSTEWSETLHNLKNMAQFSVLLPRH
Put plainly: MTAP substrate assay, coupled spectrophotometric (adenine, xanthine oxidase). The conditions noted are these: 2 nM MTAP; for activity at 50 µM: 10 min, compound 50 uM, relative to MTA at 50 uM, read-out: MT-A—50: initial velocity as a percentage of the initial velocity with MTA as substrate; for MT-A—10: initial velocity as a percentage of the initial velocity with MTA as substrate: compound 10 uM, relative to MTA at 10 uM. In kind it is biochemical. Put shortly:
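Detection was xanthine oxidase-coupled (0.8 units/ml), reading adenine-derived absorbance at 305 nm over 10 min in potassium phosphate/DTT buffer at 37° C, with N-His6 enzyme purified from E. coli.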

For the compound `Cc1cc(C)c(CSC[C@H]2O[C@@H](n3cnc4c(N)ncnc43)[C@H](O)[C@@H]2O)c(C)c1` [2(G)(137), (2R, 3R, 4S, 5S)-2-(6-amino-9H-purin-9-yl)-5-{[(mesitylmethyl)thio]-methyl}tetrahydrofuran-3,4-diol], the activity at 50 µM came out at 2% and the “MT-A—10: initial velocity as a percentage of the initial velocity with MTA as substrate” value is given as 3.5%.

As to `Nc1ccc2[nH]c(SC[C@H]3O[C@@H](n4cnc5c(N)ncnc54)[C@H](O)[C@@H]3O)nc2c1` [2(G)(51), (2R, 3R, 4S, 5S)-2-(6-amino-9H-purin-9-yl)-5-{[(5-amino-1H-benzoimidazol-2-yl)thio]methyl}tetrahydro-furan-3,4-diol], the activity at 50 µM amounted to 36% and the “MT-A—10: initial velocity as a percentage of the initial velocity with MTA as substrate” value was 16%.

Regarding `CC(C)c1ccc(SC[C@H]2O[C@@H](n3cnc4c(N)ncnc43)[C@H](O)[C@@H]2O)cc1` [2(G)(35), (2R, 3R, 4S, 5S)-2-(6-amino-9H-purin-9-yl)-5-{[(4-isopropylphenyl)-thio]methyl}tetrahydro-furan-3,4-diol], the activity at 50 µM worked out at 11% and the “MT-A—10: initial velocity as a percentage of the initial velocity with MTA as substrate” value came to 15%.

Take `Nc1ncnc2c1ncn2[C@@H]1O[C@H](CSc2nc3cc(Cl)ccc3o2)[C@@H](O)[C@H]1O` [2(G)(163), (2R, 3R, 4S, 5S)-2-(6-amino-9H-purin-9-yl)-5-{[(5-chloro-1,3-benz-oxazol-2-yl)thio]methyl}-tetrahydrofuran-3,4-diol]: the activity at 50 µM is 26.5% and the “MT-A—10: initial velocity as a percentage of the initial velocity with MTA as substrate” value turned out to be 12%.

As to `Cc1ccc(C(C)(C)C)cc1SC[C@H]1O[C@@H](n2cnc3c(N)ncnc32)[C@H](O)[C@@H]1O` [2(G)(34), (2R, 3R, 4S, 5S)-2-(6-amino-9H-purin-9-yl)-5-{[(5-tert-butyl-2-methyl-phenyl)thio]methyl}-tetrahydrofuran-3,4-diol], the activity at 50 µM came out at 3% and the “MT-A—10: initial velocity as a percentage of the initial velocity with MTA as substrate” value was 2%.

As for `Cn1nnnc1SC[C@H]1O[C@@H](n2cnc3c(N)ncnc32)[C@H](O)[C@@H]1O` [2(G)(6), (2R, 3R, 4S, 5S)-2-(6-amino-9H-purin-9-yl)-5-{[(1-methyl-1H-tetrazol-5-yl)thio]methyl}tetra-hydrofuran-3,4-diol], the activity at 50 µM was 47% and the “MT-A—10: initial velocity as a percentage of the initial velocity with MTA as substrate” value was 46%.

For the compound `Nc1ncnc2c1ncn2[C@@H]1O[C@H](CSc2ccccc2Cl)[C@@H](O)[C@H]1O` [2(G)(96), (2R, 3R, 4S, 5S)-2-(6-amino-9H-purin-9-yl)-5-{((2-chlorophenyl)thio]-methyl}tetrahydrofuran-3,4-diol], the activity at 50 µM is 6% and the “MT-A—10: initial velocity as a percentage of the initial velocity with MTA as substrate” value is listed as 5%.

Regarding `CCc1ccccc1SC[C@H]1O[C@@H](n2cnc3c(N)ncnc32)[C@H](O)[C@@H]1O` [2(G)(26), (2R, 3R, 4S, 5S)-2-(6-amino-9H-purin-9-yl)-5-{[(2-ethylphenyl)-thio]methyl}tetrahydro-furan-3,4-diol], the activity at 50 µM is 7% and the “MT-A—10: initial velocity as a percentage of the initial velocity with MTA as substrate” value came out at 6%.

As to `Nc1ncnc2c1ncn2[C@@H]1O[C@H](CSc2nc3ccccc3c(=O)[nH]2)[C@@H](O)[C@H]1O` [2(G)(50), 2-({[(2S, 3S, 4R, 5R)-2-(6-amino-9H-purin-9-yl)-dihydroxytetrahydro-furan-2-yl]methyl}thio)-quinazolin-4-(3H)-one], the activity at 50 µM came out at 37% and the “MT-A—10: initial velocity as a percentage of the initial velocity with MTA as substrate” value is recorded as 9%.

With `Nc1ncnc2c1ncn2[C@@H]1O[C@H](CSc2nc3ccccc3o2)[C@@H](O)[C@H]1O` [2(G)(122), (2R, 3R, 4S, 5S)-2-(6-amino-9H-purin-9-yl)-5-[(1,3-benzoxazol-2-ylthio)-methyl]tetrahydrofuran-3,4-diol], the activity at 50 µM is 37% and the “MT-A—10: initial velocity as a percentage of the initial velocity with MTA as substrate” value worked out at 30.5%.

`Cc1cnc(SC[C@H]2O[C@@H](n3cnc4c(N)ncnc43)[C@H](O)[C@@H]2O)nc1O` [2(G)(155), (2R, 3R, 4S, 5S)-2-(6-amino-9H-purin-9-yl)-5-{[(4-hydroxy-5-methyl-pyrimidin-2-yl)thio]-methyl}tetrahydrofuran-3,4-diol]: the activity at 50 µM worked out at 39% and the “MT-A—10: initial velocity as a percentage of the initial velocity with MTA as substrate” value is 22.5%.

With `Cn1c(O)nnc1SC[C@H]1O[C@@H](n2cnc3c(N)ncnc32)[C@H](O)[C@@H]1O` [2(G)(31), (2R, 3R, 4S, 5S)-2-(6-amino-9H-purin-9-yl)-5-{[(5-hydroxy-4-methyl-4H-1,2,4-triazol-3-yl)-thio]methyl}tetrahydro-furan-3,4-diol], the activity at 50 µM turned out to be 50% and the “MT-A—10: initial velocity as a percentage of the initial velocity with MTA as substrate” value was determined as 46%.

In the case of `Nc1ncnc2c1ncn2[C@@H]1O[C@H](CSCc2ccc(Cl)c(Cl)c2)[C@@H](O)[C@H]1O` [2(G)(145), (2R, 3R, 4S, 5S)-2-(6-amino-9H-purin-9-yl)-5-{[(3,4-dichlorobenzyl)-thio]methyl}tetrahydro-furan-3,4-diol], the activity at 50 µM worked out at 16% and the “MT-A—10: initial velocity as a percentage of the initial velocity with MTA as substrate” value is on record as 3.5%.

As for `CC(O)CSC[C@H]1O[C@@H](n2cnc3c(N)ncnc32)[C@H](O)[C@@H]1O` (stereo partly drawn) [2(G)(141), (2R, 3R, 4S, 5S)-2-(6-amino-9H-purin-9-yl)-5-{[(2-hydroxypropyl)-thio]methyl}tetrahydro-furan-3,4-diol], the activity at 50 µM amounted to 27% and the “MT-A—10: initial velocity as a percentage of the initial velocity with MTA as substrate” value is on record as 10%.

For the compound `CSc1ccc(SC[C@H]2O[C@@H](n3cnc4c(N)ncnc43)[C@H](O)[C@@H]2O)cc1` [2(G)(115), (2R, 3R, 4S, 5S)-2-(6-amino-9H-purin-9-yl)-5-({[4-(methylthio)phenyl]-thio}methyl)tetrahydro-furan-3,4-diol], the activity at 50 µM stood at 15% and the “MT-A—10: initial velocity as a percentage of the initial velocity with MTA as substrate” value was 12%.

Take `Cc1nc(SC[C@H]2O[C@@H](n3cnc4c(N)ncnc43)[C@H](O)[C@@H]2O)nc(O)c1C` [2(G)(158), (2R, 3R, 4S, 5S)-2-(6-amino-9H-purin-9-yl)-5-{[(4-hydroxy-5,6-dimethylpyrimidin-2-yl)-thio]methyl}tetrahydro-furan-3,4-diol]: the activity at 50 µM was 43.5% and the “MT-A—10: initial velocity as a percentage of the initial velocity with MTA as substrate” value was found to be 7%.

Take `Cc1cc(C)cc(SC[C@H]2O[C@@H](n3cnc4c(N)ncnc43)[C@H](O)[C@@H]2O)c1` [2(G)(148), (2R, 3R, 4S, 5S)-2-(6-amino-9H-purin-9-yl)-5-{[(3,5-dimethylphenyl)-thio]methyl}tetrahydro-furan-3,4-diol]: the activity at 50 µM came to 15% and the “MT-A—10: initial velocity as a percentage of the initial velocity with MTA as substrate” value is reported as 2%.

As for `CC(O)C(C)SC[C@H]1O[C@@H](n2cnc3c(N)ncnc32)[C@H](O)[C@@H]1O` (stereo partly drawn) [2(G)(144), (2R, 3R, 4S, 5S)-2-(6-amino-9H-purin-9-yl)-5-{[(2-hydroxy-1-methyl-propyl)thio]methyl}tetra-hydrofuran-3,4-diol], the activity at 50 µM was 7.5% and the “MT-A—10: initial velocity as a percentage of the initial velocity with MTA as substrate” value is given as 18%.

Regarding `Nc1ncnc2c1ncn2[C@@H]1O[C@H](CSC[C@@H]2NC(=O)NC2=O)[C@@H](O)[C@H]1O` [2(G)(123), (5R)-5-[({[(2S, 3S, 4R, 5R)-5-(6-amino-9H-purin-9-yl)-3,4-dihydroxytetra-hydrofuran-2-yl)methyl}thio)methyl]imidazo-lidine-2,4-dione], the activity at 50 µM was found to be 22% and the “MT-A—10: initial velocity as a percentage of the initial velocity with MTA as substrate” value worked out at 23%.

Turning to `Cc1ccc2[nH]c(SC[C@H]3O[C@@H](n4cnc5c(N)ncnc54)[C@H](O)[C@@H]3O)nc2c1` [2(G)(48), (2R, 3R, 4S, 5S)-2-(6-amino-9H-purin-9-yl)-5-{[(5-methyl-1H-benzimidazol-2-yl)thio]-methyl}tetrahydro-furan-3,4-diol], the activity at 50 µM was 5% and the “MT-A—10: initial velocity as a percentage of the initial velocity with MTA as substrate” value stood at 3%.

Regarding `Nc1ncnc2c1ncn2[C@@H]1O[C@H](CSc2ccccc2F)[C@@H](O)[C@H]1O` [2(G)(117), (2R, 3R, 4S, 5S)-2-(6-amino-9H-purin-9-yl)-5-{[(2-fluorophenyl)thio)-methyl}tetrahydrofuran-3,4-diol], the activity at 50 µM is 28% and the “MT-A—10: initial velocity as a percentage of the initial velocity with MTA as substrate” value is 25%.

For the compound `Nc1ncnc2c1ncn2[C@@H]1O[C@H](CSc2c[nH]c3ccccc23)[C@@H](O)[C@H]1O` [2(G)(106), (2R, 3R, 4S, 5S)-2-(6-amino-9H-purin-9-yl)-5-[(1H-indol-3-ylthio)-methyl]-tetrahydrofuran-3,4-diol], the activity at 50 µM was 3% and the “MT-A—10: initial velocity as a percentage of the initial velocity with MTA as substrate” value was 6%.

As for `Nc1ncnc(SC[C@H]2O[C@@H](n3cnc4c(N)ncnc43)[C@H](O)[C@@H]2O)n1` [2(G)(55), (2R, 3R, 4S, 5S)-2-(6-amino-9H-purin-9-yl)-5-{[(4-amino-1,3,5-triazin-2-yl)thio]methyl}tetra-hydrofuran-3,4-diol], the activity at 50 µM worked out at 47% and the “MT-A—10: initial velocity as a percentage of the initial velocity with MTA as substrate” value came out at 43%.
